IC50 data for 25 compounds are collected here from patent publication US7541368B2, “Pyrazoles as inhibitors of tumor necrosis factor” (Aventis Pharmaceuticals Inc., priority 2003, dated 2009).

Molecules are shown by their SMILES.

The subject of this assay is TNF-alpha release in THP-1 cells. The assay can be described thus: LPS-induced TNF-alpha release in THP-1 cells. It counts as cell-based. To be noted: Homo sapiens, THP-1, LPS-stimulated THP-1 cells; read-out: 50% inhibition in the LPS-induced TNF-alpha release in THP-1 cells assay at concentrations within the range. As for the experimental part: The effects of compounds on TNF-alpha production by lipopolysaccharide (LPS)-stimulated […] monocytes were examined as follows.
Undifferentiated THP-1 cells were maintained in RPMI 1640 with Glutamax I containing β-mercaptoethananol (50 μM) and foetal calf serum (FCS-10%) at densities of about 1×10^6 cells per ml. For incubations without and with test reagents, cells were seeded at the indicated densities under serum-deprived (1% FCS) conditions. Compounds were dissolved in dimethylsulfoxide (DMSO-100%) and incubated with the cells to give a fmal DMSO concentration of 0.3%. Control and untreated cell samples were incubated with DMSO (0.3%).
THP-1 cells (1×10 ^6 cells/ml, total volume 150 μl) in culture medium were incubated for 1 hour (5% CO2, 37° C.) with fresh medium containing compounds or vehicle (0.1-0.3% dimethylsulfoxide). LPS (20 μg/ml) was then added to the cells and the incubation continued for a fuirther 18 hours. Cell supernatants were removed into 96 well plates for storage at −20° C.
TNF-alpha concentrations in cell supernatants were quantified by sandwich ELISA. Briefly, ELISA plates were coated overnight with 2 μg/ml of mouse anti-human TNF-alpha antibody in bicarbonate buffer (pH 9.9). After washing the wells with wash buffer (0.05% (v/v) Tween in PBS)and blocking unoccupied sites (1% BSA in wash buffer), monocyte supernatant samples or human recombinant TNF-alpha standards were added into the corresponding wells of the ELISA plate at 1:10 dilution. Biotinylated rabbit polyclonal anti-human TNF-alpha antibody (3 μg/ml) was used as the second antibody and streptavidin-horseradish peroxidase was used as the detection antibody. The peroxidase substrate is 3,3′,5,5′-tetramethylbenzidine (TMB) in the presence of hydrogen peroxide.
TNFα concentrations in supernatants from control and LPS-stimulated monocyte incubations were calculated by interpolation from a standard (log/log) curve (0.125-16 ng/ml) fitted by Excel Fit using the Activity Base software. Compounds were tested within the concentration range of 1×10^−9M to 1×10^−6M.
With `CO[C@H](C(=O)N1CCC(Cc2cccc(NC(=O)Nc3cc(C(C)(C)C)nn3-c3ccc(C)cc3)c2)CC1)c1ccccc1` [Compound A4, 1-(5-tert-Butyl-2-p-tolyl-2H-pyrazol-3-yl)-3-{3-[1-((S)-2-methoxy-2-phenyl-acetyl)-piperidin-4-ylmethyl]-phenyl}-urea], the IC50 was in the range of 10 to 500 nM. The figure for `Cc1ccc(-n2nc(C(C)(C)C)cc2NC(=O)Nc2cccc(CC3CCN(C(=O)c4csnn4)CC3)c2)cc1` [Compound A6, 1-(5-tert-Butyl-2-p-tolyl-2H-pyrazol-3-yl)-3-{3-[1-([1,2,3]thiadiazole-4-carbonyl)-piperidin-4-ylmethyl]-phenyl}-urea] is 10 to 500 nM; for `Cc1ccc(-n2nc(C(C)(C)C)cc2NC(=O)Nc2cccc(CC3CCN(C(=O)c4ccc5cnccc5n4)CC3)c2)cc1` [Compound A7, 1-(5-tert-Butyl-2-p-tolyl-2H-pyrazol-3-yl)-3-{3-[1-([1,6]naphthyridine-2-carbonyl)-piperidin-4-ylmethyl]-phenyl}-urea] it is 10 to 500 nM; for `Cc1ccc(-n2nc(C(C)(C)C)cc2NC(=O)Nc2cccc(CC3CCN(C(=O)c4ccc5cccnc5n4)CC3)c2)cc1` [Compound A8, 1-(5-tert-Butyl-2-p-tolyl-2H-pyrazol-3-yl)-3-{3-[1-([1,8]naphthyridine-2-carbonyl)-piperidin-4-ylmethyl]-phenyl}-urea] it is 10 to 500 nM. Next, `Cc1ccc(-n2nc(C(C)(C)C)cc2NC(=O)Nc2cccc(CC3CCN(C(=O)c4nccc5ccccc45)CC3)c2)cc1` [Compound A13, 1-(5-tert-Butyl-2-p-tolyl-2H-pyrazol-3-yl)-3-{3-[1-(isoquinoline-1-carbonyl)-piperidin-4-ylmethyl]-phenyl}-urea]: 10 to 500 nM. Next, `COc1cccc(C(=O)N2CCC(Cc3cccc(NC(=O)Nc4cc(C(C)(C)C)nn4-c4ccc(C)cc4)c3)CC2)c1OC` [Compound A21, 1-(5-tert-Butyl-2-p-tolyl-2H-pyrazol-3-yl)-3-{3-[1-(2,3-dimethoxy-benzoyl)-piperidin-4-ylmethyl]-phenyl}-urea]: 10 to 500 nM; `COc1cccc(CC(=O)N2CCC(Cc3cccc(NC(=O)Nc4cc(C(C)(C)C)nn4-c4ccc(C)cc4)c3)CC2)c1OC` [Compound A22, 1-(5-tert-Butyl-2-p-tolyl-2H-pyrazol-3-yl)-3-(3-{1-[2-(2,3-dimethoxy-phenyl)-acetyl]-piperidin-4-ylmethyl}-phenyl)-urea]: 10 to 500 nM. For the compound `COc1cc(OC)c(C(=O)N2CCC(Cc3cccc(NC(=O)Nc4cc(C(C)(C)C)nn4-c4ccc(C)cc4)c3)CC2)c(OC)c1` [Compound A24, 1-(5-tert-Butyl-2-p-tolyl-2H-pyrazol-3-yl)-3-{3-[1-(2,4,6-trimethoxy-benzoyl)-piperidin-4-ylmethyl]-phenyl}-urea], the IC50 was in the range of 10 to 500 nM. For the compound `Cc1ccc(-n2nc(C(C)(C)C)cc2NC(=O)Nc2cccc(CC3CCN(C(=O)Cc4ccc(F)cc4F)CC3)c2)cc1` [Compound A26, 1-(5-tert-Butyl-2-p-tolyl-2H-pyrazol-3-yl)-3-(3-{1-[2-(2,4-difluoro-phenyl)-acetyl]-piperidin-4-ylmethyl}-phenyl)-urea], the IC50 was 10 to 500 nM. The figure for `Cc1ccc(-n2nc(C(C)(C)C)cc2NC(=O)Nc2cccc(CC3CCN(C(=O)c4cc(C)oc4C)CC3)c2)cc1` [Compound A29, 1-(5-tert-Butyl-2-p-tolyl-2H-pyrazol-3-yl)-3-{3-[1-(2,5-dimethyl-furan-3-carbonyl)-piperidin-4-ylmethyl]-phenyl}-urea] is 10 to 500 nM; for `Cc1ccc(-n2nc(C(C)(C)C)cc2NC(=O)Nc2cccc(CC3CCN(C(=O)c4cccnc4N)CC3)c2)cc1` [Compound A39, 1-{3-[1-(2-Amino-pyridine-3-carbonyl)-piperidin-4-ylmethyl]-phenyl}-3-(5-tert-butyl-2-p-tolyl-2H-pyrazol-3-yl)-urea] it is 10 to 500 nM. Next, `Cc1ccc(-n2nc(C(C)(C)C)cc2NC(=O)Nc2cccc(CC3CCN(C(=O)c4ccc(S(C)(=O)=O)cc4Cl)CC3)c2)cc1` [Compound A40, 1-(5-tert-Butyl-2-p-tolyl-2H-pyrazol-3-yl)-3-{3-[1-(2-chloro-4-methanesulfonyl-benzoyl)-piperidin-4-ylmethyl]-phenyl}-urea]: 10 to 500 nM; `Cc1ccc(-n2nc(C(C)(C)C)cc2NC(=O)Nc2cccc(CC3CCN(C(=O)c4ccco4)CC3)c2)cc1` [Compound A45, 1-(5-tert-Butyl-2-p-tolyl-2H-pyrazol-3-yl)-3-{3-[1-(furan-2-carbonyl)-piperidin-4-ylmethyl]-phenyl}-urea]: 10 to 500 nM; `COc1ccccc1CC(=O)N1CCC(Cc2cccc(NC(=O)Nc3cc(C(C)(C)C)nn3-c3ccc(C)cc3)c2)CC1` [Compound A50, 1-(5-tert-Butyl-2-p-tolyl-2H-pyrazol-3-yl)-3-(3-{1-[2-(2-methoxy-phenyl)-acetyl]-piperidin-4-ylmethyl}-phenyl)-urea]: 10 to 500 nM. On to `Cc1ccc(-n2nc(C(C)(C)C)cc2NC(=O)Nc2cccc(CC3CCN(C(=O)c4ccoc4C)CC3)c2)cc1` [Compound A52, 1-(5-tert-Butyl-2-p-tolyl-2H-pyrazol-3-yl)-3-{3-[1-(2-methyl-furan-3-carbonyl)-piperidin-4-ylmethyl]-phenyl}-urea], for which the IC50 lay within 10 to 500 nM. The figure for `Cc1ccc(-n2nc(C(C)(C)C)cc2NC(=O)Nc2cccc(CC3CCN(C(=O)c4cnccn4)CC3)c2)cc1` [Compound A64, 1-(5-tert-Butyl-2-p-tolyl-2H-pyrazol-3-yl)-3-{3-[1-(pyrazine-2-carbonyl)-piperidin-4-ylmethyl]-phenyl}-urea] is 10 to 500 nM; for `Cc1ccc(-n2nc(C(C)(C)C)cc2NC(=O)Nc2cccc(CC3CCN(C(=O)C4CCCO4)CC3)c2)cc1` (stereo not shown) [Compound A66, 1-(5-tert-Butyl-2-p-tolyl-2H-pyrazol-3-yl)-3-{3-[1-(tetrahydro-furan-2-carbonyl)-piperidin-4ylmethyl]-phenyl}-urea] it is 10 to 500 nM; for `COc1ccc(CC(=O)N2CCC(Cc3cccc(NC(=O)Nc4cc(C(C)(C)C)nn4-c4ccc(C)cc4)c3)CC2)cc1OC` [Compound A69, 1-(5-tert-Butyl-2-p-tolyl-2H-pyrazol-3-yl)-3-(3-{1-[2-(3,4-dimethoxy-phenyl)-acetyl]-piperidin-4-ylmethyl}-phenyl)-urea] it is 10 to 500 nM. The figure for `Cc1ccc(-n2nc(C(C)(C)C)cc2NC(=O)Nc2cccc(CC3CCN(C(=O)Cc4ccc5c(c4)OCO5)CC3)c2)cc1` [Compound A70, 1-{3-[1-(2-Benzo[1,3]dioxol-5-yl-acetyl)-piperidin-4-ylmethyl]-phenyl}-3-(5-tert-butyl-2-p-tolyl-2H-pyrazol-3-yl)-urea] is 10 to 500 nM. For `COc1cc(OC)cc(C(=O)N2CCC(Cc3cccc(NC(=O)Nc4cc(C(C)(C)C)nn4-c4ccc(C)cc4)c3)CC2)c1` [Compound A73, 1-(5-tert-Butyl-2-p-tolyl-2H-pyrazol-3-yl)-3-{3-[1-(3,5-dimethoxy-benzoyl)-piperidin-4-ylmethyl]-phenyl}-urea], the IC50 fell in the range of 10 to 500 nM. The figure for `Cc1ccc(-n2nc(C(C)(C)C)cc2NC(=O)Nc2cccc(CC3CCN(C(=O)c4cccc(C(C)C#N)c4)CC3)c2)cc1` (stereo not shown) [Compound A79, 1-(5-tert-Butyl-2-p-tolyl-2H-pyrazol-3-yl)-3-(3-{1-[3-(cyano-methyl-methyl)-benzoyl]-piperidin-4-ylmethyl}-phenyl)-urea] is 10 to 500 nM.

`Cc1ccc(-n2nc(C(C)(C)C)cc2NC(=O)Nc2cccc(CC3CCN(C(=O)CCc4ccco4)CC3)c2)cc1` [Compound A81, 1-(5-tert-Butyl-2-p-tolyl-2H-pyrazol-3-yl)-3-{3-[1-(3-furan-2-yl-propionyl)-piperidin-4-ylmethyl]-phenyl}-urea]: the IC50 is 10 to 500 nM. Next, `COc1ccccc1CCC(=O)N1CCC(Cc2cccc(NC(=O)Nc3cc(C(C)(C)C)nn3-c3ccc(C)cc3)c2)CC1` [Compound A82, 1-(5-tert-Butyl-2-p-tolyl-2H-pyrazol-3-yl)-3-(3-{1-[3-(2-methoxy-phenyl)-propionyl]-piperidin-4-ylmethyl}-phenyl)-urea]: 10 to 500 nM. In the case of `Cc1ccc(-n2nc(C(C)(C)C)cc2NC(=O)Nc2cccc(CC3CCN(C(=O)CCc4cccs4)CC3)c2)cc1` [Compound A83, 1-(5-tert-Butyl-2-p-tolyl-2H-pyrazol-3-yl)-3-{3-[1-(3-thiophen-2-yl-propionyl)-piperidin-4-ylmethyl]-phenyl}-urea], the IC50 fell in the range of 10 to 500 nM. Next, `Cc1ccc(-n2nc(C(C)(C)C)cc2NC(=O)Nc2cccc(CC3CCN(C(=O)c4ccoc4)CC3)c2)cc1` [Compound A92, 1-(5-tert-Butyl-2-p-tolyl-2H-pyrazol-3-yl)-3-{3-[1-(furan-3-carbonyl)-piperidin-4-ylmethyl]-phenyl}-urea]: 10 to 500 nM.
